Laboratory results as given in patent US9238653B2, “Antimalarial agents that are inhibitors of dihydroorotate dehydrogenase” (BOARD OF REGENTS, THE UNIVERSITY OF TEXAS SYSTEM, priority 2009, dated 2016).
Where two headings read alike, the source gives them in different places.

Experiments:
[1] = test system: P. falciparum 3D7; experiment: 3H-hypoxanthine uptake in P. falciparum-infected erythrocytes; assay type: cell-based, Plasmodium falciparum; conditions: read-out: EC50 P. falciparum 3D7
[2] = target: pfDHOD (Plasmodium falciparum (isolate 3D7), UniProt Q08210); experiment: DHOD enzyme inhibition, colorimetric DCIP reduction or direct orotic acid assay; assay type: biochemical
Description: Reactions are initiated by addition of enzyme to a final concentration in the range of about 5 nM to about 50 nM while maintaining the temperature of a circulating water bath at 25° C.
Assay solutions were prepared as discussed above, except that DCIP is not present and the solution is depleted of oxygen by the inclusion of an oxidase/reductase system, such as, 0.1 mg/ml of glucose oxidase, 0.02 mg/ml catalase and 50 mM glucose. The data obtained was fitted to equation 1, to determine the IC50 values of the representative compounds.

[3] = Plasmodium falciparum, 3D7, Erythrocyte
[4] = Plasmodium falciparum, 3D7, Erythrocyte, 3D7 strain

Chain of pfDHOD (Q08210 24-569 limits assumed): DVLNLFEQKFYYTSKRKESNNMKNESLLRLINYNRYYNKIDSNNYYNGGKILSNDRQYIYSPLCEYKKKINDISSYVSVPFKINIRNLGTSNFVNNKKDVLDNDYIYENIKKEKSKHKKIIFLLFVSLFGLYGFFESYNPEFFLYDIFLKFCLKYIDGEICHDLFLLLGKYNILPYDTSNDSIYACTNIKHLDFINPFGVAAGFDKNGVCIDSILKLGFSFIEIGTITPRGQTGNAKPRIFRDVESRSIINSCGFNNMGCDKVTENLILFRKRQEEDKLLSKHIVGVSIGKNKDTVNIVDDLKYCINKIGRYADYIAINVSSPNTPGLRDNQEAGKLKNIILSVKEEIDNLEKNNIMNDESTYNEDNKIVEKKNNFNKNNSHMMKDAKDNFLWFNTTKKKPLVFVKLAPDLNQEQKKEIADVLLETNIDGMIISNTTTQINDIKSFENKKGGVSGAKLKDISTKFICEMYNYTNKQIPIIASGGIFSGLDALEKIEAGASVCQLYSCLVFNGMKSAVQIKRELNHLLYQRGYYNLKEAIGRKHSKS

Row | Compound | IC50 [2] [nM] | EC50 [1, 4] [nM] | other results
1 | Cc1cc(Nc2ccc(Cl)c(F)c2)n2ncnc2n1 |  |  | melting point: 285 °C
2 | Cc1cc(NC2Cc3ccc(Br)cc3C2)n2ncnc2n1 (centres unmarked) |  |  | melting point: 164 °C
3 | Cc1cc(Nc2ccc(C(F)(F)F)cc2)n2nc(C(F)(F)F)nc2n1 |  |  | melting point: 124 to 126 °C
4 | Cc1cc(Nc2ccc(S(F)(F)(F)(F)F)cc2)n2nc(C(F)(F)F)nc2n1 |  |  | melting point: 178 to 180 °C
5 | Cc1cc(NC2CCc3ccccc3C2)n2ncnc2n1 (centres unmarked) | 500 |  | EC50 [1, 3]: 1800 nM
6 | Cc1cc(Nc2ccc(C(F)(F)F)cc2)n2ccnc2n1 | 77 | 330 | 
7 | Cc1cc(NC2Cc3ccccc3C2)n2ncnc2n1 | 500 | 2400 | 
8 | Cc1cc(Nc2ccc(Cl)cc2)n2nc(C(F)(F)F)nc2n1 | 90 | 260 | 
9 | Cc1cc(C)cc(Nc2cc(C)nc3nc(C(F)(F)F)nn23)c1 | 220 | 700 | 
10 | CC(C)c1ccc(Nc2c3c(nc4ncnn24)CCC3)cc1 | 250 | 1800 | 
11 | Cc1cc(Nc2ccc(C(F)(F)F)cc2)n2nc(C(C)(F)F)nc2n1 | 38 | 7 | 
12 | CCc1c(C)nc2ncnn2c1Nc1ccc(C(C)C)cc1 | 1660 | > 10000 | 
13 | CCc1c(C)nc2ncnn2c1Nc1ccc(OC(F)(F)F)cc1 |  | > 10000 | 
14 | Cc1cc(Nc2ccc(S(F)(F)(F)(F)F)cc2)n2nc(C(C)(F)F)nc2n1 |  |  | EC50 [1, 3]: 19 nM
15 | Cc1cc(Nc2ccc3sccc3c2)n2ncnc2n1 | 90 | 70 | 
16 | Cc1cc(Nc2ccc(C)c(Cl)c2)n2nc(C(F)(F)F)nc2n1 | 130 | 800 | 
17 | Cc1cc(Nc2cc(F)c(C(F)(F)F)c(F)c2)n2ncnc2n1 | 190 | 240 | 
18 | Cc1cc(Nc2ccc3c(c2)CCCC3)n2nc(C(F)(F)F)nc2n1 | 43 |  | 
19 | COc1nc2nc(C)cc(Nc3cccc(Cl)c3)n2n1 |  | 1000 | 
20 | Cc1cc(NC2Cc3cc(Cl)c(Cl)cc3C2)n2ncnc2n1 | 1200 | > 5000 | 
21 | Cc1cc(Nc2ccc(S(F)(F)(F)(F)F)cc2)n2ccnc2n1 |  | 600 | 

Row | Compound | IC50 [2] [nM] | EC50 [1, 4] [nM] | other results
22 | Cc1cc(NC2Cc3cc(F)c(F)cc3C2)n2ncnc2n1 | 1000 | 1500 | 
23 | Cc1cc(Nc2ccc(SC(F)(F)F)cc2)n2ncnc2n1 | 610 | > 4000 | 
24 | Cc1cc(NC2Cc3ccc(F)cc3C2)n2ncnc2n1 (centres unmarked) | 610 |  | EC50 [1, 3]: 1300 nM
25 | COc1cc2c(cc1OC)CC(Nc1cc(C)nc3ncnn13)C2 | 4620 |  | EC50 [1, 3]: 7700 nM
26 | Cc1cc(Nc2ccc(F)cc2)n2nc(C(F)(F)F)nc2n1 | 740 | 8500 | 
27 | Brc1ccc(Nc2c3c(nc4ncnn24)CCCC3)cc1 | 2120 | 9900 | 
28 | Cc1cc(Nc2ccc(C(C)(C)C)c(F)c2)n2ncnc2n1 | 60 | 100 | 
29 | Cc1cc(NC2CCc3cc(F)ccc3C2)n2ncnc2n1 (centres unmarked) | 630 |  | EC50 [1, 3]: 2500 nM
30 | Cc1cc(Nc2ccc(C(F)(F)F)c(C(F)(F)F)c2)n2ncnc2n1 | 540 |  | EC50 [1, 3]: 2300 nM
31 | Cc1cc(Nc2ccc(S(F)(F)(F)(F)F)cc2)n2nc(C)nc2n1 | 510 | 420 | 
32 | Cc1cc(Nc2ccc(Cl)c(F)c2)n2nc(C(F)(F)F)nc2n1 | 520 | 250 | 
33 | Cc1ccc(Nc2c3c(nc4ncnn24)CCC3)cc1F |  |  | EC50 [1, 3]: 8300 nM
34 | FC(F)(F)c1ccc(Nc2cc(C(F)(F)F)nc3ncnn23)cc1 | 1700 | > 10000 | 
35 | Cc1cc(NC2CCc3cc(Cl)ccc3C2)n2ncnc2n1 (centres unmarked) | 670 | 10000 | 
36 | Cc1cc(NC2CCc3ccccc3C2)n2nc(C(F)(F)F)nc2n1 (centres unmarked) | 1200 |  | 
37 | Cc1cc(Nc2ccc(C(F)(F)F)c(F)c2)n2nc(C(C)(F)F)nc2n1 | 35 | 9.3 | 
38 | Cc1cc(Nc2cc(F)c(C(F)(F)F)c(F)c2)n2nc(C(C)(F)F)nc2n1 | 20 | 30 | 
39 | COc1nc2nc(C)cc(Nc3ccc(S(F)(F)(F)(F)F)cc3)n2n1 | 42 | 64 | 
40 | Cc1cc(Nc2ccc(C(F)(F)F)cc2)n2nc(C(C)C)nc2n1 | 110 |  | EC50 [1, 3]: 98 nM
41 | CCC(F)(F)c1nc2nc(C)cc(Nc3ccc(C(F)(F)F)cc3)n2n1 | 190 |  | EC50 [1, 3]: 45 nM
42 | Cc1cc(Nc2ccc(C(F)(F)F)cc2)n2nc(C3CC3)nc2n1 | 140 |  | EC50 [1, 3]: 150 nM

Row | Compound | IC50 [2] [nM] | EC50 [1, 4] [nM] | other results
43 | Cc1cc(Nc2ccc(S(F)(F)(F)(F)F)cc2)n2ncnc2n1 | 160 | 18000 | 
44 | Cc1cc(Nc2cc(F)c(C(F)(F)F)c(F)c2)n2nc(C(F)(F)F)nc2n1 | 22 | 4.8 | 
45 | CCc1nc2nc(C)cc(Nc3ccc(S(F)(F)(F)(F)F)cc3)n2n1 |  | 100 | 
46 | Cc1cc(Nc2ccc(S(F)(F)(F)(F)F)cc2)n2nc(C(C)C)nc2n1 |  |  | EC50 [1, 3]: 420 nM
47 | CCC(F)(F)c1nc2nc(C)cc(Nc3ccc(S(F)(F)(F)(F)F)cc3)n2n1 |  |  | EC50 [1, 3]: 550 nM
48 | Cc1cc(Nc2ccc(S(F)(F)(F)(F)F)cc2)n2nc(C3CC3)nc2n1 |  | 500 | 
49 | Cc1cc(Nc2ccc(Cl)cc2)n2nc(C(C)(F)F)nc2n1 | 28 | 33 | 
50 | Cc1cc(Nc2ccc(CC(F)(F)F)cc2)n2ncnc2n1 [Example 25, 5-Methyl-N-(4-(2,2,2-trifluoroethyl)phenyl)-[1,2,4]triazolo[1,5-a]pyrimidin-7-amine] |  |  | melting point: 204 °C
51 | Cc1cc(Nc2ccc(C(F)(F)F)c(F)c2)n2ccnc2n1 [Example 51, N-(3-fluoro-4-(trifluoromethyl)phenyl)-7-methylimidazo[1,2-a]pyrimidin-5-amine] |  |  | melting point: 302 to 304 °C
52 | Cc1cc(Nc2ccc3c(c2)CCCC3)n2ccnc2n1 [Example 53, 7-Methyl-N-(5,6,7,8-tetrahydronaphthalen-2-yl)imidazo[1,2-a]pyrimidin-5-amine] |  |  | melting point: 264 to 266 °C
53 | Cc1cc(Nc2ccc3c(c2)CCC3)n2ccnc2n1 [Example 54, N-(2,3-dihydro-1H-inden-5-yl)-7-methylimidazo[1,2-a]pyrimidin-5-amine] |  |  | melting point: 255 to 257 °C
54 | Cc1cc(Nc2ccc(C(F)(F)F)cc2)n2nc(C(F)(F)F)nc2n1 [drawing 329] | 35 |  | EC50 [1, 3]: 73 nM
55 | Cc1cc(Nc2ccc(C(F)(F)F)c(F)c2)n2ccnc2n1 [drawing 333] | 140 | 600 | 
56 | Cc1cc(Nc2ccc3c(c2)CCCC3)n2ncnc2n1 [drawing 335] | 100 | 300 | 
57 | Cc1cc(Nc2ccc3c(c2)CCC3)n2ccnc2n1 [drawing 336] | 130 | 600 | 
58 | Cc1cc(Nc2ccc(CC(F)(F)F)cc2)n2ncnc2n1 [drawing 337] | 2470 |  | 
59 | Cc1cc(Nc2ccc(Cl)c(F)c2)n2ncnc2n1 [drawing 338] | 510 |  | EC50 [1, 3]: 3500 nM
60 | Cc1cc(NC2Cc3ccc(Br)cc3C2)n2ncnc2n1 (centres unmarked) [drawing 343] | 990 |  | EC50 [1, 3]: 6600 nM
61 | Cc1cc(Nc2ccc(S(F)(F)(F)(F)F)cc2)n2nc(C(F)(F)F)nc2n1 [drawing 344] | 130 |  | EC50 [1, 3]: 140 nM
62 | Cc1cc(Nc2ccc3c(c2)CCCC3)n2ncnc2n1 [drawing 353] | 32 |  | EC50 ([1]; 3D7 strain): 200 nM
